Assay results as given in patent US10189845B2, “4,6-substituted-pyrazolo[1,5-a]pyrazines as janus kinase inhibitors” (ARRAY BIOPHARMA INC., priority 2014, dated 2019).
Structures can show the parent of a compound that is named as a salt. Where two headings read alike, the source gives them in different places.

Columns and labels:
Assay type in all cases: biochemical
[1] = molecular target: Human Tyk2 kinase domain (Homo sapiens (Human), UniProt P29597); experiment: Tyk2 Inhibition Assay (Example A, Omnia kinase fluorescence peptide substrate assay); settings: TYK2 Enzyme IC50 1 mM ATP, averaged IC50 ranges
From the text: (§1) The assays described in Examples A, B, C and D for the determination of Tyk2, JAK1, JAK2 and JAK3 kinase activity, respectively, utilized the Omnia® Kinase fluorescence peptide substrate-based technology (Invitrogen). The specific components of the assay mixture are described in Examples A, B, C and D. In these assays, Mg^2+ is chelated upon phosphorylation of the Omnia peptide by the kinase to form a bridge between the chelation-enhanced fluorophore Sox and the phosphate, resulting in an increase in fluorescence emission at 485 nm when excited at […]. The reactions were therefore read at excitation 360 nm and emission was measured at 485 nm every 50 seconds for 45 minutes using a PerkinElmer EnVision Multilabel Plate Reader.
(§2) The final buffer conditions for Tyk2, JAK1, JAK2, and JAK3 assays were as follows: 25 mM HEPES, pH 7.4, 10 mM MgCl2, 0.01% Triton X-100 and 1 mM DTT.
(§3) Two-μL aliquots of these were transferred to a fresh plate for a ten-fold intermediate dilution with assay buffer. Five-μL aliquots of the diluted compounds were then transferred to 20-μL of assay mixtures described in Examples A, B, C and D for a final concentration of DMSO of 2%. […] For each plate, percent of control (POC) values were calculated for each well according to the following equation: […]
(§4) IC50's were estimated from the POC's using a standard 4-parameter logistic model:
(§5) The IC50 is defined as the concentration of inhibitor at which the POC equals 50 for the fitted curve.
Compounds of Formula I were screened for their ability to inhibit Tyk2 using the general enzyme inhibition assay method, in which the assay mixture contained 1 mM ATP, 8 μM Omnia Y12 peptide (Catalog # IVGN KPZ3121C; Invitrogen Corporation, Carlsbad, Calif.) and 1 nM Tyk2 in a total volume of 25 μL. Human Tyk2 kinase domain, comprising amino acids 886 to 1187 with 10 additional histidine residues (histidine tag) on the carboxy terminus, was expressed and purified from bacculovirus in-house at Array BioPharma Inc. (Boulder, Colo.). The histidine tag was cleaved after purification using standard conditions.

[2] = molecular target: JAK1 (Homo sapiens (Human), UniProt P23458); experiment: JAK1 Inhibition Assay (Example B, Omnia kinase fluorescence peptide substrate assay)
Outline: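 Recombinant human JAK1 (12.5 nM) with 1 mM ATP and 8 μM Omnia Y12 Sox-peptide in 25 mM HEPES pH 7.4, 10 mM MgCl2, 0.01% Triton X-100, 1 mM DTT, 2% DMSO final. Phosphorylation read kinetically (ex 360/em 485 nm, 45 min); IC50 from 4-parameter fit of percent of control.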

[3] = molecular target: JAK2 (Homo sapiens (Human), UniProt O60674); experiment: JAK2 Inhibition Assay (Example C, Omnia kinase fluorescence peptide substrate assay); settings: JAK2 Enzyme IC50 1 mM ATP, averaged IC50 ranges
From the text: as §1, §2, §3, §4, §5
Compounds of Formula I were screened for their ability to inhibit JAK2 using the general enzyme inhibition assay method, in which the assay mixture contained 1 mM ATP, 10 μM Omnia® Y7 peptide (Catalog # IVGN KNZ3071C, Invitrogen Corporation, Carlsbad, Calif.) and 4 nM JAK2 in a total volume of 25 μL. JAK2 was purchased from Invitrogen Corporation, Carlsbad, Calif. (catalog # IVGN PV4288).

[4] = molecular target: JAK3 (Homo sapiens (Human), UniProt P52333); experiment: JAK3 Inhibition Assay (Example D, Omnia kinase fluorescence peptide substrate assay)
Outline: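 Mixture held 2 nM JAK3, 1 mM ATP and 10 μM Omnia Y7 peptide in 25 mM HEPES pH 7.4, 10 mM MgCl2, 0.01% Triton X-100, 1 mM DTT, 2% DMSO final. Sox fluorescence (ex 360/em 485 nm) was read every 50 s for 45 min. IC50 came from a 4-parameter logistic fit of percent of control.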

[5] = JAK1 Enzyme IC50 1 mM ATP, 1 mM ATP, averaged IC50 ranges

Human Tyk2 kinase domain, sequence (P29597 886-1187): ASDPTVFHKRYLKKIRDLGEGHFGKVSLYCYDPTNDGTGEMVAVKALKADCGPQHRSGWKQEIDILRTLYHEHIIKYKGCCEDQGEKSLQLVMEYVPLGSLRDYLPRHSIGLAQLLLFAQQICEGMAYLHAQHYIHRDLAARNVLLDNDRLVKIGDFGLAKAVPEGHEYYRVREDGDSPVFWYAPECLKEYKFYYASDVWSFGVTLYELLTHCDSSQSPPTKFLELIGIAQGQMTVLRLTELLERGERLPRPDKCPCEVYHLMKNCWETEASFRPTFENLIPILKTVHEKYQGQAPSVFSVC
JAK2, sequence (O60674 whole entry): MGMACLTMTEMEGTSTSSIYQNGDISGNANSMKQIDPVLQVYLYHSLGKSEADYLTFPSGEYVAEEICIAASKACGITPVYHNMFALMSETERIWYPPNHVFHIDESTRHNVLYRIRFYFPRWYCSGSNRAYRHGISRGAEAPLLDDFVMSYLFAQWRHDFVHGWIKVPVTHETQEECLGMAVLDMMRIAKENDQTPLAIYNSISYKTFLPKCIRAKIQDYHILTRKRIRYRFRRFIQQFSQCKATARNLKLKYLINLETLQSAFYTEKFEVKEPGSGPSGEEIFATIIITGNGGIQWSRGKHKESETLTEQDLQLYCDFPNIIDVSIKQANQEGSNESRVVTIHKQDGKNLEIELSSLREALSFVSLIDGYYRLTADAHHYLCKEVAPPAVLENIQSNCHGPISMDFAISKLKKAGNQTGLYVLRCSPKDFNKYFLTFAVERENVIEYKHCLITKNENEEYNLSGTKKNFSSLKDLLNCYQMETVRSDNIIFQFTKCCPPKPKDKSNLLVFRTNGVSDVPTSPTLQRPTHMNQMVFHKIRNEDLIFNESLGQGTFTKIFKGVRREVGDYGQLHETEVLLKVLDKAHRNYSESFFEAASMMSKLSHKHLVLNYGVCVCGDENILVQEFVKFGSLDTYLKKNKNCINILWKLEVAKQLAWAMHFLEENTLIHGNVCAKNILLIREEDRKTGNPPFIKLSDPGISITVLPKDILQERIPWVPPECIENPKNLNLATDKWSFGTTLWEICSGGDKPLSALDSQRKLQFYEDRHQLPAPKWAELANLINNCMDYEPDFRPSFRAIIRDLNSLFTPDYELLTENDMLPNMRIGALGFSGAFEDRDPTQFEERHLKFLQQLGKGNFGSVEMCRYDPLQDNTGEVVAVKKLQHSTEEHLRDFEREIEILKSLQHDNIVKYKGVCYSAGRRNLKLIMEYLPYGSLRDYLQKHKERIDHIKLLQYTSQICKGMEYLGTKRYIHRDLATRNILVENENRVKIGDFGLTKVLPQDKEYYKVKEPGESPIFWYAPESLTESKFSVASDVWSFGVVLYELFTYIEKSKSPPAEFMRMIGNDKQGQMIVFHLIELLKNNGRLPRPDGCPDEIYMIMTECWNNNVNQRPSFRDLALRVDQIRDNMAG
JAK3, sequence (P52333 whole entry): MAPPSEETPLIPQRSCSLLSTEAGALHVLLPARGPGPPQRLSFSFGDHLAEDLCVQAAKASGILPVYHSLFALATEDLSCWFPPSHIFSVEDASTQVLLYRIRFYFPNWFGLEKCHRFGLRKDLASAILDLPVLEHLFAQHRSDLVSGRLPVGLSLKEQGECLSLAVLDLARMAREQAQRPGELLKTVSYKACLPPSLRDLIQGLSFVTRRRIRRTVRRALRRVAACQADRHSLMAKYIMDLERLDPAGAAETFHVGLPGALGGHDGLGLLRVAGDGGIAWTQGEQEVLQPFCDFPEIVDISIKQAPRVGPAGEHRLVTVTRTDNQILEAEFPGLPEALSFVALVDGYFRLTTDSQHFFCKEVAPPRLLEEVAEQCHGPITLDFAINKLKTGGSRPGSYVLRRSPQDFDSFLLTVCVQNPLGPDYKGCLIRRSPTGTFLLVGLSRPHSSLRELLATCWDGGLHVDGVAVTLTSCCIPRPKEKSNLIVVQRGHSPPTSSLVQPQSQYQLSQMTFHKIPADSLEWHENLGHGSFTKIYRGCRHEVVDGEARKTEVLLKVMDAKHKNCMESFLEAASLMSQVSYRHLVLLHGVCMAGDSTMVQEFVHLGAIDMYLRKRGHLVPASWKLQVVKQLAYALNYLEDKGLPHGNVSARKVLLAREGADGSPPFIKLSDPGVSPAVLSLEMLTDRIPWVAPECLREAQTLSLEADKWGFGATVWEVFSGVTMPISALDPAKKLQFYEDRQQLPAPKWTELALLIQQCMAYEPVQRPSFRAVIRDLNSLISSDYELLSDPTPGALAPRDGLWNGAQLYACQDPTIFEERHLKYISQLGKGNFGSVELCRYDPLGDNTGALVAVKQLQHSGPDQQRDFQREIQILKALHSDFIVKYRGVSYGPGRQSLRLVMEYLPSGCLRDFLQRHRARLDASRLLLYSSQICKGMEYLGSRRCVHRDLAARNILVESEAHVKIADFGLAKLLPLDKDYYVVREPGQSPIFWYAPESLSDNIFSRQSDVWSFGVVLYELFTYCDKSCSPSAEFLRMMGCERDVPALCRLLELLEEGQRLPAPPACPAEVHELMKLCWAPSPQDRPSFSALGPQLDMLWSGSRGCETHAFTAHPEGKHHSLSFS
JAK1, sequence (P23458 whole entry): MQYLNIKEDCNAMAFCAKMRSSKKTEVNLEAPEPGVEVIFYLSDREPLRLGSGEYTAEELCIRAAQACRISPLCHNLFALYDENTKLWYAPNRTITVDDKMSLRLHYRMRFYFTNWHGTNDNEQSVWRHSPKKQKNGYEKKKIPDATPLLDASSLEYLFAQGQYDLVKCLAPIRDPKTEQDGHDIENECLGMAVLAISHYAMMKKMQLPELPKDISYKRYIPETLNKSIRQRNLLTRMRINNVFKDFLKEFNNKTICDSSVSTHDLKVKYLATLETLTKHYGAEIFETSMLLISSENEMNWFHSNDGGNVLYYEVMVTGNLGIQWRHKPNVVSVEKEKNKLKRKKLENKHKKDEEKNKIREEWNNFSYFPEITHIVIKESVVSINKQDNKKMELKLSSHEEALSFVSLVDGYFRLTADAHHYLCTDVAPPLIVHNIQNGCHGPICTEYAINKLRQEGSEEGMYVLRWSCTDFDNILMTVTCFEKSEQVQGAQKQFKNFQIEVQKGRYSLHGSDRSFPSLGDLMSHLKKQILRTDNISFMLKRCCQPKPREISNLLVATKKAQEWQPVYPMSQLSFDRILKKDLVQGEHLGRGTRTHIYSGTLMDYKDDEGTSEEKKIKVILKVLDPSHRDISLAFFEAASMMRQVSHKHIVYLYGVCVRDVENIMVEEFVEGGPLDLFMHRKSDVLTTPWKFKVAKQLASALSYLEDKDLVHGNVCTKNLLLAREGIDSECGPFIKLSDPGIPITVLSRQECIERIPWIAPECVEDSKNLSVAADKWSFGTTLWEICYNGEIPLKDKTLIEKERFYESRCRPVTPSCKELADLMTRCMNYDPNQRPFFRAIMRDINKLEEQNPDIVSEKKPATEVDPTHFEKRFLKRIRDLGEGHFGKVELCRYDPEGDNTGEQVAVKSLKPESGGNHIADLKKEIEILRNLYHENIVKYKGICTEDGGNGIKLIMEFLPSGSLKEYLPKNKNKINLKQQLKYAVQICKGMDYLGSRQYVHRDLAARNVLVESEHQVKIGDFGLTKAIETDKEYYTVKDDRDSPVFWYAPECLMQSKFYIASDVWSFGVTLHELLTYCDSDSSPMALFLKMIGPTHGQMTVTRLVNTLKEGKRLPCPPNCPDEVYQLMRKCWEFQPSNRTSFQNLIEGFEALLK

Row | Structure (SMILES) | IC50 [1] [µM] | IC50 [2] [µM] | IC50 [3] [µM] | IC50 [4] [µM] | IC50 [2, 5] [µM]
1 | CCC(CC)n1cc(-c2nc(-c3cnn(CCN(C)C)c3)cn3nccc23)cn1 [Example 10, N,N-dimethyl-2-(4-(4-(1-(pentan-3-yl)-1H-pyrazol-4-yl)pyrazolo[1,5-a]pyrazin-6-yl)-1H-pyrazol-1-yl)ethanamine] | 0.01 to 0.1 | 1 to 10 | 0.01 to 0.1 | 1 to 10 | 
2 | CCC(CC)n1cc(-c2nc(-c3cnn(CC(=O)N(C)C)c3)cn3nccc23)cn1 [Example 5, N,N-dimethyl-2-(4-(4-(1-(pentan-3-yl)-1H-pyrazol-4-yl)pyrazolo[1,5-a]pyrazin-6-yl)-1H-pyrazol-1-yl)acetamide] | 0.01 to 0.1 | 0.1 to 1 | 0.1 to 1 | 1 to 10 | 
3 | Cn1cc(-c2cn3nccc3c(-c3cnn(C4CCCC4O)c3)n2)cn1 (centres unmarked) [Example 53, 2-(4-(6-(1-methyl-1H-pyrazol-4-yl)pyrazolo[1,5-a]pyrazin-4-yl)-1H-pyrazol-1-yl)cyclopentanol] | 0.1 to 1 | 1 to 10 | 0.1 to 1 | 1 to 10 | 
4 | CCC(CC)n1cc(-c2nc(-c3cnn(C4CN(P(=O)(N(C)C)N(C)C)C4)c3)cn3nccc23)cn1 [Example 41, Bis-N,N-dimethyl-P-(3-(4-(4-(1-(pentan-3-yl)-1H-pyrazol-4-yl)pyrazolo[1,5-a]pyrazin-6-yl)-1H-pyrazol-1-yl)azetidin-1-yl)phosphonic amide] | 0.01 to 0.1 | 0.1 to 1 | 0.01 to 0.1 | 1 to 10 | 
5 | CCC(CC)n1cc(-c2nc(-c3cnn(CCO)c3)cn3nccc23)cn1 [Example 20, 2-(4-(4-(l-(pentan-3-yl)-1H-pyrazol-4-yl)pyrazolo[1,5-a]pyrazin-6-yl)-1H-pyrazol-1-yl)ethanol] | 0.01 to 0.1 | 0.01 to 0.1 | 0.01 to 0.1 | 1 to 10 | 
6 | CCC(c1ccccc1)n1cc(-c2nc(-c3cnn(C[C@@H](O)CO)c3)cn3nccc23)cn1 (stereo partly drawn) [Example 66, (2R)-3-(4-(4-(1-(1-phenylpropyl)-1H-pyrazol-4-yl)pyrazolo[1,5-a]pyrazin-6-yl)-1H-pyrazol-1-yl)propane-1,2-diol] | 0.01 to 0.1 |  | 0.01 to 0.1 | 0.1 to 1 | 0.01 to 0.1
7 | CC[C@H](C)n1cc(-c2nc(-c3cnn(C[C@H](O)CO)c3)cn3nccc23)cn1 [Example 70, (S)-3-(4-(4-(1-((S)-sec-butyl)-1H-pyrazol-4-yl)pyrazolo[1,5-a]pyrazin-6-yl)-1H-pyrazol-1-yl)propane-1,2-diol hydrochloride] | 0.01 to 0.1 | 0.1 to 1 | 0.01 to 0.1 | 1 to 10 | 
8 | CCC(CC)n1cc(-c2nc(-c3cnn(CC[C@@H](O)CO)c3)cn3nccc23)cn1 [Example 64, (R)-4-(4-(4-(1-(pentan-3-yl)-1H-pyrazol-4-yl)pyrazolo[1,5-a]pyrazin-6-yl)-1H-pyrazol-1-yl)butane-1,2-diol] | 0.01 to 0.1 |  | 0.01 to 0.1 | 1 to 10 | 0.1 to 1
9 | CCC(CC)n1cc(-c2nc(-c3cnn(CC4CCS(=O)(=O)CC4)c3)cn3nccc23)cn1 [Example 11, 4-((4-(4-(1-(pentan-3-yl)-1H-pyrazol-4-yl)pyrazolo[1,5-a]pyrazin-6-yl)-1H-pyrazol-1-yl)methyl)tetrahydro-2H-thiopyran 1,1-dioxide] | 0.01 to 0.1 | 1 to 10 | 0.01 to 0.1 | 1 to 10 | 

Results, then the compound that gave them:

Row | IC50 [1] [µM] | IC50 [2] [µM] | IC50 [3] [µM] | IC50 [4] [µM] | IC50 [2, 5] [µM] | Structure (SMILES)
10 | 0.01 to 0.1 | 0.1 to 1 | 0.01 to 0.1 | 1 to 10 |  | CCC(CC)n1cc(-c2nc(-c3cnn([C@H]4C[C@@H](C(=O)N(C)C)C4)c3)cn3nccc23)cn1 [Example 170, (1s,3s)-N,N-dimethyl-3-(4-(4-(1-(pentan-3-yl)-1H-pyrazol-4-yl)pyrazolo[1,5-a]pyrazin-6-yl)-1H-pyrazol-1-yl)cyclobutanecarboxamide]
11 | 0.01 to 0.1 |  | 0.01 to 0.1 | 1 to 10 | 0.01 to 0.1 | CCC(CC)n1cc(-c2nc(-c3cnn(CC(C)(C)CO)c3)cn3nccc23)cn1 [Example 191, 2,2-dimethyl-3-(4-(4-(1-(pentan-3-yl)-1H-pyrazol-4-yl)pyrazolo[1,5-a]pyrazin-6-yl)-1H-pyrazol-1-yl)propan-1-ol]
12 | 0.01 to 0.1 |  | 0.01 to 0.1 | 1 to 10 | 1 to 10 | CCC(CC)n1cc(-c2nc(-c3cnn(CC(O)CN)c3)cn3nccc23)cn1 (centres unmarked) [Example 98, 1-amino-3-(4-(4-(1-(pentan-3-yl)-1H-pyrazol-4-yl)pyrazolo[1,5-a]pyrazin-6-yl)-1H-pyrazol-1-yl)propan-2-ol]
13 | 0.1 to 1 |  | 0.1 to 1 | 1 to 10 | 1 to 10 | C[C@@H](CC(F)(F)F)n1cc(-c2nc(-c3cnn(C[C@@H](O)CO)c3)cn3nccc23)cn1 [Example 195, (R)-3-(4-(4-(1-((S)-4,4,4-trifluorobutan-2-yl)-1H-pyrazol-4-yl)pyrazolo[1,5-a]pyrazin-6-yl)-1H-pyrazol-1-yl)propane-1,2-diol hydrochloride]
14 | 0.1 to 1 | 0.1 to 1 | 0.01 to 0.1 | 1 to 10 |  | CCC(CC)n1cc(-c2nc(-c3cnn(CCNC4CC(CO)C4)c3)cn3nccc23)cn1 (centres unmarked) [Example 145, (3-((2-(4-(4-(1-(pentan-3-yl)-1H-pyrazol-4-yl)pyrazolo[1,5-a]pyrazin-6-yl)-1H-pyrazol-1-yl)ethyl)amino)cyclobutyl)methanol]
15 | 0.01 to 0.1 | 0.1 to 1 | 0.01 to 0.1 | 1 to 10 |  | CCC(CC)n1cc(-c2nc(-c3cnn(C[C@](C)(O)CO)c3)cn3nccc23)cn1 (single isomer, unassigned) [Example 203]
16 | 0.01 to 0.1 | 0.01 to 0.1 | 0.01 to 0.1 | 1 to 10 |  | CCC(CC)n1cc(-c2nc(-c3cnn(CCNC4CC4)c3)cn3nccc23)cn1 [Example 134, N-(2-(4-(4-(1-(pentan-3-yl)-1H-pyrazol-4-yl)pyrazolo[1,5-a]pyrazin-6-yl)-1H-pyrazol-1-yl)ethyl)cyclopropanamine trifluoroacetate]
17 | 0.1 to 1 |  | 0.1 to 1 | 1 to 10 | 1 to 10 | CC[C@H](n1cc(-c2nc(-c3cnn(C[C@@H](O)CO)c3)cn3nccc23)cn1)C(C)(F)F [Example 198, (R)-3-(4-(4-(1-((S)-2,2-difluoropentan-3-yl)-1H-pyrazol-4-yl)pyrazolo[1,5-a]pyrazin-6-yl)-1H-pyrazol-1-yl)propane-1,2-diol]
18 | 0.1 to 1 |  | 0.1 to 1 | 1 to 10 | 1 to 10 | CCC(n1cc(-c2nc(-c3cnn(C[C@@H](O)CO)c3)cn3nccc23)cn1)C(F)(F)F (stereo partly drawn) [Example 193, (2R)-3-(4-(4-(1-(1,1,1-trifluorobutan-2-yl)-1H-pyrazol-4-yl)pyrazol[1,5-a]pyrazin-6-yl)-1H-pyrazol-1-yl)propane-1,2-diol]
19 | 0.01 to 0.1 |  | 0.01 to 0.1 | 1 to 10 | 0.1 to 1 | CC[C@H](C1CC1)n1cc(-c2nc(-c3cnn(C(CO)CO)c3)cn3nccc23)cn1 [Example 215, (R)-2-(4-(4-(1-(1-cyclopropylpropyl)-1H-pyrazol-4-yl)pyrazolo[1,5-a]pyrazin-6-yl)-1H-pyrazol-1-yl)propane-1,3-diol]
20 | 0.1 to 1 |  | 0.1 to 1 | 1 to 10 | 1 to 10 | CCC(CC)n1cc(-c2nc(-c3cnn(C[C@@H](O)CN4CCCC4)c3)cn3nccc23)cn1 [Example 106, (S)-1-(4-(4-(1-(pentan-3-yl)-1H-pyrazol-4-yl)pyrazolo[1,5-a]pyrazin-6-yl)-1H-pyrazol-1-yl)-3-(pyrrolidin-1-yl)propan-2-ol]
